Columns and labels:
[1] = target: T1, Tyrosine-protein phosphatase non-receptor type 1 (Homo sapiens) (UniProt P18031); assay: Inhibition of recombinant human PTP1B expressed in Escherichia coli expression system using pNPP as substrate at 10 uM preincubated for 30 mins followed by substrate addition by […]
T1 sequence (whole entry): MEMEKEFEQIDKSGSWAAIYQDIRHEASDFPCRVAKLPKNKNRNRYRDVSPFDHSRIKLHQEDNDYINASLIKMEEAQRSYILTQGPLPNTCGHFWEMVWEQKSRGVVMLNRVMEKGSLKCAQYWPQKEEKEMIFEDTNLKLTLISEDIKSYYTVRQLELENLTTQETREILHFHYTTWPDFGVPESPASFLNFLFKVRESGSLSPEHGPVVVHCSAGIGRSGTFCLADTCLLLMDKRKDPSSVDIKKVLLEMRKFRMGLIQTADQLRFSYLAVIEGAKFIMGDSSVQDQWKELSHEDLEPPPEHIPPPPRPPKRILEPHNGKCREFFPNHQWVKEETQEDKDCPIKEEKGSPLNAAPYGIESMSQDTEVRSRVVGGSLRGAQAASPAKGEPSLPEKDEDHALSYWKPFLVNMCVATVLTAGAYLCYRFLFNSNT

[2] = Intrinsic permeability of compound at 50 uM at pH 7.4 after 16 hrs by PAMPA assay; format: ADME
[3] = target: T1, Tyrosine-protein phosphatase non-receptor type 1 (Homo sapiens); assay: Inhibition of recombinant human PTP1B expressed in Escherichia coli expression system using pNPP as substrate at 100 uM preincubated for 30 mins followed by substrate addition by […]
[4] = Intrinsic clearance in rat liver microsomes at 1 uM preincubated for 5 mins followed by NADPH addition measured up to 30 mins by LC-MS/MS analysis; format: ADME; details: 0.5 h
[5] = Intrinsic clearance in mouse liver microsomes at 1 uM preincubated for 5 mins followed by NADPH addition measured up to 30 mins by LC-MS/MS analysis; format: ADME; details: 0.5 h
[6] = target: T2, Tyrosine-protein phosphatase non-receptor type 1 (Homo sapiens, UniProt P18031); assay: Inhibition of recombinant human PTP1B expressed in Escherichia coli expression system using pNPP as substrate preincubated for 30 mins followed by substrate addition by […]
T2 sequence (P18031 whole entry): T1 sequence (whole entry)

inhibition [1] [%] | Papp at 16 h, 50 µM [2] [×10⁻⁶ cm/s] | inhibition [3] [%] | intrinsic clearance (CLint) [4] [mL/min/g] | CLH [5] [mL/min/g] | Ki [6] [µM] | Structure (SMILES)
16.2 | 1.5 | 91.5 | – | – | – | Nc1c(C(=O)O)cnn1-c1ccc(CC(C(=O)c2ccc(Cl)cc2)c2ccc(F)c(F)c2)cc1 (stereo not given)
8.9 | – | 64 | – | – | – | Nc1c(C(=O)O)cnn1-c1ccc(CN(Cc2ccccc2)Cc2ccccc2)cc1
12.1 | – | 36.8 | – | – | – | Nc1c(C(=O)O)cnn1-c1ccc(CC(C(=O)c2ccc(F)cc2)c2ccccc2)cc1 (stereo not given)
22 | – | 93.3 | 3 | 1.3 | 8.6 | COc1ccc(C(Cc2ccc(-n3ncc(C(=O)O)c3N)cc2)c2nc(-c3cccc(F)c3)no2)cc1 (stereo not given)
21.6 | – | 82.2 | – | – | – | COc1ccc(CN(Cc2ccc(F)cc2)Cc2ccc(-n3ncc(C(=O)O)c3N)cc2)cc1
33.7 | – | 98.3 | 2 | 1.5 | 4.4 | COc1ccc(C(Cc2ccc(-n3ncc(C(=O)O)c3N)cc2)c2nc(-c3ccc(Cl)cc3)no2)cc1 (stereo not given)
35.1 | – | 94 | 4 | 7.4 | 4.1 | COc1ccc(CN(Cc2ccc(F)cc2)Cc2ccc(-n3ncc(C(=O)O)c3N)cc2)cc1OC
40.8 | – | 98.4 | – | – | – | Nc1c(C(=O)O)cnn1-c1ccc(CN(Cc2ccc(F)cc2)Cc2ccc(F)cc2)cc1
– | 16.6 | – | – | – | – | CC(C)NCC(O)COc1cccc2ccccc12 (stereo not given) [PROPRANOLOL]
21.6 | – | 82.2 | – | – | – | Nc1c(C(=O)O)cnn1-c1ccc(CC(C(=O)c2ccc(F)cc2)c2ccc(F)c(F)c2)cc1 (stereo not given)
43.8 | 10.6 | 97.4 | 3 | 2.1 | 4.5 | Nc1c(C(=O)O)cnn1-c1ccc(CN(Cc2ccc(F)cc2)Cc2ccc(Cl)cc2)cc1
18.8 | – | 89.5 | – | – | – | Nc1c(C(=O)O)cnn1-c1ccc(CC(C(=O)c2ccc(Cl)cc2)c2ccc(F)cc2)cc1 (stereo not given)
12.2 | – | 64 | – | – | – | Nc1c(C(=O)O)cnn1-c1ccc(CC(c2ccccc2)c2nc(-c3ccccc3)no2)cc1 (stereo not given)

The remaining lines, values behind:

Structure (SMILES) | inhibition [1] [%] | Papp at 16 h, 50 µM [2] [×10⁻⁶ cm/s] | inhibition [3] [%] | intrinsic clearance (CLint) [4] [mL/min/g] | CLH [5] [mL/min/g] | Ki [6] [µM]
Nc1c(C(=O)O)cnn1-c1ccc(CC(c2ccc(F)cc2)c2nc(-c3cccc(F)c3)no2)cc1 (stereo not given) | 19 | – | 94.9 | – | – | –
Nc1c(C(=O)O)cnn1-c1ccc(CC(c2ccc(F)cc2)c2nc(-c3ccc(Cl)cc3)no2)cc1 (stereo not given) | 30.8 | 9.1 | 97.3 | 3 | 0 | 4.6
COc1ccc(CN(Cc2ccc(OC)cc2)Cc2ccc(-n3ncc(C(=O)O)c3N)cc2)cc1 | 9.9 | 12.5 | 76.9 | 2.5 | 5.6 | 7.1
Nc1c(C(=O)O)cnn1-c1ccc(CC(C(=O)c2ccccc2)c2ccc(F)c(F)c2)cc1 (stereo not given) | 10.5 | – | 48.5 | – | – | –
COc1ccc(-c2noc(C(Cc3ccc(-n4ncc(C(=O)O)c4N)cc3)c3ccc(F)cc3)n2)cc1 (stereo not given) | 25.8 | 0.4 | 95.5 | 3 | 1.5 | 8.1
Nc1c(C(=O)O)cnn1-c1ccc(CC(C(=O)c2ccc(F)cc2)c2ccc(F)cc2)cc1 (stereo not given) | 0.8 | – | 34.4 | – | – | –
Nc1c(C(=O)O)cnn1-c1ccc(CC(C(=O)c2ccccc2)c2ccc(F)cc2)cc1 (stereo not given) | 19 | – | 43.9 | – | – | –
Nc1c(C(=O)O)cnn1-c1ccc(CN(Cc2ccc(Cl)cc2)Cc2ccc(F)c(F)c2)cc1 | 22.5 | 49.8 | 97.2 | 2 | 1.2 | 11
COc1ccc(C(=O)C(Cc2ccc(-n3ncc(C(=O)O)c3N)cc2)c2ccc(F)cc2)cc1 (stereo not given) | 13.5 | – | 58.5 | – | – | –
COc1ccc(C(=O)C(Cc2ccc(-n3ncc(C(=O)O)c3N)cc2)c2ccc(OC)cc2)cc1 (stereo not given) | 4.8 | – | 39.7 | – | – | –
Nc1c(C(=O)O)cnn1-c1ccc(CC(C(=O)c2ccccc2)c2ccccc2)cc1 (stereo not given) | 9.6 | – | 32.6 | – | – | –
Nc1c(C(=O)O)cnn1-c1ccc(CN(Cc2ccc(F)cc2)Cc2ccc(F)c(F)c2)cc1 | 19.5 | 27.9 | 95.2 | 3 | 2.7 | 13
COc1ccc(CN(Cc2ccc(C)cc2)Cc2ccc(-n3ncc(C(=O)O)c3N)cc2)cc1 | 5 | – | 49.7 | – | – | –
